Calls of active or inactive are those of the source.
How the values were obtained:
Ephrin type-A receptor 4 = Ephrin type-A receptor 4 (Mus musculus, UniProt Q03137); assay: EphA4 ligand-binding antagonists – biochemical, colorimetric, mouse EphA4, primary screen (AID 689); format: functional
[1] = Luminescence Cell-Based Dose Retest to Confirm Inhibitors of Cancer Stem Cells. [Related pubchem assays (depositor defined):AID2717, AID2721]; format: functional, Homo sapiens; settings: Homo sapiens
[2] = target: T1, Hepatocyte nuclear factor 4-alpha (Homo sapiens, UniProt P41235); format: functional, cell-based;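 also: biochemical luminescence-based dose-response counterscreen measuring inhibition of HNF4 dimerization, run alongside a screen for blockers of ABHD5–perilipin-5 interaction; split luciferase complementation of HNF4 fusion proteins in cell lysate measuring dimerization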
T1 sequence (P41235 whole entry): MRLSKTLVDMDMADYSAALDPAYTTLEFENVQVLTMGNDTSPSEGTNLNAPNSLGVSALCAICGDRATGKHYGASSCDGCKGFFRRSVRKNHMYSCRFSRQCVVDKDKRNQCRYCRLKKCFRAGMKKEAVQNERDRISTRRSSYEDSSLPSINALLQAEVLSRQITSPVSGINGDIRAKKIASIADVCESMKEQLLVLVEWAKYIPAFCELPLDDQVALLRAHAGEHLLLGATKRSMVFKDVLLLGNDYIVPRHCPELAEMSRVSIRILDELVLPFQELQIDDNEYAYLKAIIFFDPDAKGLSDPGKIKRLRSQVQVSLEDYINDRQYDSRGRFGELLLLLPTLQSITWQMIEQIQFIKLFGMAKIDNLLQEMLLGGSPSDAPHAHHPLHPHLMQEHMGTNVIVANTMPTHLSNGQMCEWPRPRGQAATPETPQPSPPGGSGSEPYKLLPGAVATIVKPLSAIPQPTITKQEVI

[3] = target: Voltage-gated inwardly rectifying potassium channel KCNH2 (Homo sapiens, UniProt Q12809); assay: concentration-dependent hERG rescue from blockers – cell-based, thallium flux, dose response (AID 2121); format: ADME
Chain of Voltage-gated inwardly rectifying potassium channel KCNH2 (Q12809 whole entry): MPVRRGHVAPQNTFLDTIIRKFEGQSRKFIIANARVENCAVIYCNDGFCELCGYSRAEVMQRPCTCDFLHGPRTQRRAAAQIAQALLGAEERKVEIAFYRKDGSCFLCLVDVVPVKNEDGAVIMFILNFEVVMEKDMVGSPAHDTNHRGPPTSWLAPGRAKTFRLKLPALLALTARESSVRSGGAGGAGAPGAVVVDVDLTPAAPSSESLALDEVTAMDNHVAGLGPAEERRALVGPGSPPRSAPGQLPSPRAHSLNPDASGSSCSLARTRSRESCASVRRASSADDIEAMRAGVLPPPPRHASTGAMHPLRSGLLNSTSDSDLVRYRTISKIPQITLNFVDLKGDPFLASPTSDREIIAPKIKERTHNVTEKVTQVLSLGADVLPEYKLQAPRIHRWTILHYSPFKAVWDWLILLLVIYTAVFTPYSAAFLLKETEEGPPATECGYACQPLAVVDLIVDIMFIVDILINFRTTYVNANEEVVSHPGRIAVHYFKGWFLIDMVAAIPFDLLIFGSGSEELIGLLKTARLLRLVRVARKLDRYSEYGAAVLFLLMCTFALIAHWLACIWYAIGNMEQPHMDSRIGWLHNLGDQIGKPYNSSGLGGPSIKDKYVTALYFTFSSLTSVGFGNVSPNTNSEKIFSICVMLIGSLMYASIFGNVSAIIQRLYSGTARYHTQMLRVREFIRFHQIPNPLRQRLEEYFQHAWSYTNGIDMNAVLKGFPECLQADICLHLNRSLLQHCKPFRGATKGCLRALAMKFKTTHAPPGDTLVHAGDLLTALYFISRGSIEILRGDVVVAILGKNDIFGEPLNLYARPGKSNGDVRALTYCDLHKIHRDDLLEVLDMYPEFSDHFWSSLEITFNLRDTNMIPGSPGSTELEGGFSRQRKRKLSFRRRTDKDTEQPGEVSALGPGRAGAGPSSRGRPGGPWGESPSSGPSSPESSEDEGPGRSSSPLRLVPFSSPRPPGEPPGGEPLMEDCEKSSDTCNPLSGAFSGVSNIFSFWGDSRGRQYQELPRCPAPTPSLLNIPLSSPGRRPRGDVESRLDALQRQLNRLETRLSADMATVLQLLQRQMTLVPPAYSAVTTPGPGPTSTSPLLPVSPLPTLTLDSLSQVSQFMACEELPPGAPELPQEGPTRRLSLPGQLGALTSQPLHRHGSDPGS

Cytochrome P450 3A4 = Cytochrome P450 3A4 (Homo sapiens, UniProt P08684);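 also: CYP3A4 tested as one member of a cytochrome P450 panel screen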
Chain of Cytochrome P450 3A4 (P08684 whole entry): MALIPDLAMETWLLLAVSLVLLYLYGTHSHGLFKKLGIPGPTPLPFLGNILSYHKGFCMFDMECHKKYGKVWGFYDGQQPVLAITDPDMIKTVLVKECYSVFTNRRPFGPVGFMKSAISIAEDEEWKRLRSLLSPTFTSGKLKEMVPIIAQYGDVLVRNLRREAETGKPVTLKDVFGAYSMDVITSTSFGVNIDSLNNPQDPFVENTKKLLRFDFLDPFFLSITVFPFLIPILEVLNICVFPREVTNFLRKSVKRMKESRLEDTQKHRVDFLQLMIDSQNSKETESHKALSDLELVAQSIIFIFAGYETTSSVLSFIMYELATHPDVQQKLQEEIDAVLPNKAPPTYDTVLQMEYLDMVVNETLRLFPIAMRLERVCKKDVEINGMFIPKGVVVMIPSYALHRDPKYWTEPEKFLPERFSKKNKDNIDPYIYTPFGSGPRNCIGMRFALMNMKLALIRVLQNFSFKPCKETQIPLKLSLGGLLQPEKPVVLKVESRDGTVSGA

Estrogen receptor beta = Estrogen receptor beta (Homo sapiens, UniProt Q92731);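 also: recombinant ER-beta bound to coactivator SRC1 peptide in presence of estradiol agonist; inhibitors block coactivator peptide binding and lower the FRET signal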
Chain of Estrogen receptor beta (Q92731 whole entry): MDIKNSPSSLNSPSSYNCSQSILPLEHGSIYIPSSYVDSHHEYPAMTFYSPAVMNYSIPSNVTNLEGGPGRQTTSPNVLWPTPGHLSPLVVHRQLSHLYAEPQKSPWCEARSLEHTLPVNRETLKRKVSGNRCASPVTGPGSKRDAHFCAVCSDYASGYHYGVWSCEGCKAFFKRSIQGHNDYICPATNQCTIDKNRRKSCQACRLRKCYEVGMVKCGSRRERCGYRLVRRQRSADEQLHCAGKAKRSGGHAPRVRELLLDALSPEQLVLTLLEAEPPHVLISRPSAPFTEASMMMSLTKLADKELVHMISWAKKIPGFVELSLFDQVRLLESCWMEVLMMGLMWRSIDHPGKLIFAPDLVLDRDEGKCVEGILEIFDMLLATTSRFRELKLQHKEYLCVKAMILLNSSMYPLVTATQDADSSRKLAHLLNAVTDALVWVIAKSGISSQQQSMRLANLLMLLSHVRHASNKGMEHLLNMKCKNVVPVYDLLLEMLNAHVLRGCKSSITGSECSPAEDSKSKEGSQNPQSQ

[4] = target: T2, Histone-lysine N-methyltransferase NSD2 (Homo sapiens, UniProt O96028); format: biochemical
T2 sequence (O96028 whole entry): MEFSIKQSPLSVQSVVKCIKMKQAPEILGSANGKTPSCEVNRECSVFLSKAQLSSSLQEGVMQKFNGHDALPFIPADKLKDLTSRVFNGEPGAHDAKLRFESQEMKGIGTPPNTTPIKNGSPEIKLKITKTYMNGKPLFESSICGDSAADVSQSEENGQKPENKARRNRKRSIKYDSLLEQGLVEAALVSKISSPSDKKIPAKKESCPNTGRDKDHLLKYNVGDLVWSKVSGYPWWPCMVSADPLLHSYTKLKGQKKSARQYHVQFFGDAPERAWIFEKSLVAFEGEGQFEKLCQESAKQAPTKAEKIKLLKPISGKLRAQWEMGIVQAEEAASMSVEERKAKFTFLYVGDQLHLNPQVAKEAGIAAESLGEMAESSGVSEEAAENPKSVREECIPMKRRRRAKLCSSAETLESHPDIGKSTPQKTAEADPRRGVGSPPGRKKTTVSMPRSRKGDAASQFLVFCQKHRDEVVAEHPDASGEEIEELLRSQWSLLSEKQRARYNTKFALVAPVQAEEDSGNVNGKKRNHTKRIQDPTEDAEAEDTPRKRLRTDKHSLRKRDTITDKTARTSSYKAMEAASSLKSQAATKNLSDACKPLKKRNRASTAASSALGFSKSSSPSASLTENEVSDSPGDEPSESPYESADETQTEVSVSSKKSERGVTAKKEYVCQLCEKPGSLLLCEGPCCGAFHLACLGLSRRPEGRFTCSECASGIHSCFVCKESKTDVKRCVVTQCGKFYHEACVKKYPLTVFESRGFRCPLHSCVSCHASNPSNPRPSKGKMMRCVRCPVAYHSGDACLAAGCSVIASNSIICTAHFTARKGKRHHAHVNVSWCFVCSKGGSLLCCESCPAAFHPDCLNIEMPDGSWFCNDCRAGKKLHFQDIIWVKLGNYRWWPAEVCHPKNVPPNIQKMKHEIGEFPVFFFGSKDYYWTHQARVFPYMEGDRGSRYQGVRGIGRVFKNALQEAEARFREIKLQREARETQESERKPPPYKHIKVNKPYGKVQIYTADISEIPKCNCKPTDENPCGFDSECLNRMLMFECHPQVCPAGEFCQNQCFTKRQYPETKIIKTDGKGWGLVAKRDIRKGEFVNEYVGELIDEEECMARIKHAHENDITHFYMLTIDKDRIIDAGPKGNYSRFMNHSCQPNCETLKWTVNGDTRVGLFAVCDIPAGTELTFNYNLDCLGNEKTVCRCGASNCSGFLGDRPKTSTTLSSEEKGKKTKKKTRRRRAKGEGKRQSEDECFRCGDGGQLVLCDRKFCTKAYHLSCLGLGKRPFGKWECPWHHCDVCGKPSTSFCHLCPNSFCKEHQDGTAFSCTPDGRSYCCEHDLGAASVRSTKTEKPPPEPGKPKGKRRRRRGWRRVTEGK

[5] = target: T3, Mannose-6-phosphate isomerase (Homo sapiens, UniProt P34949); assay: MPI inhibition at elevated mannose 6-phosphate – biochemical, fluorescence intensity, high mannose 6-phosphate, primary screen (AID 1220)
T3 sequence (P34949 whole entry): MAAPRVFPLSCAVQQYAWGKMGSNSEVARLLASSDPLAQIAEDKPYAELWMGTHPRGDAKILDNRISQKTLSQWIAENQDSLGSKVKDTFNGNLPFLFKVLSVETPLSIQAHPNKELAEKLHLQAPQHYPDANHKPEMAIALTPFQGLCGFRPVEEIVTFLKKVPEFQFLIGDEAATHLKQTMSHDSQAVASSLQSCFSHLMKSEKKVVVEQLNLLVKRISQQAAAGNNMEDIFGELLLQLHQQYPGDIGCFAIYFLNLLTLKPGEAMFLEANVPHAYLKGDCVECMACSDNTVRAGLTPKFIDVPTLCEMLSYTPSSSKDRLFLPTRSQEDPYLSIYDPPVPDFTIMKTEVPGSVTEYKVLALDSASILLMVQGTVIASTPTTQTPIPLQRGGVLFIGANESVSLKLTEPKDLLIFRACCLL

Estrogen receptor = target: T4, Estrogen receptor (Homo sapiens, UniProt P03372);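 also: potency for inhibiting coactivator peptide recruitment to the receptor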
T4 sequence (P03372 whole entry): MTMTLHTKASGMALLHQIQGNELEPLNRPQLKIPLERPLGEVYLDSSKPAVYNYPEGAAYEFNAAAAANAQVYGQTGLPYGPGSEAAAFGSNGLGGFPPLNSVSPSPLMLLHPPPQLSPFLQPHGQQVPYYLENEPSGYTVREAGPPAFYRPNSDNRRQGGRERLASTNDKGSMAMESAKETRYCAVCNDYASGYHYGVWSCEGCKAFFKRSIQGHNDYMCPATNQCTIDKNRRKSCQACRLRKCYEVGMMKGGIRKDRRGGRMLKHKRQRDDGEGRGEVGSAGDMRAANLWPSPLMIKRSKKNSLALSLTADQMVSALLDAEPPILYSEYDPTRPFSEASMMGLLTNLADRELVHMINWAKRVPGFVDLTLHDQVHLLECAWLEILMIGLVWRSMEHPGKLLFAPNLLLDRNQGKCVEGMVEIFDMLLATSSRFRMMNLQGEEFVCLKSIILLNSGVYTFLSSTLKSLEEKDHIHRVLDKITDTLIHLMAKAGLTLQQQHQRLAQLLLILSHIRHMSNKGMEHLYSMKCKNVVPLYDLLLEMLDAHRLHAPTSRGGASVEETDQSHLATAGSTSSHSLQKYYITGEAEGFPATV

[6] = target: T5, High affinity choline transporter 1 (Homo sapiens, UniProt Q9GZV3); assay: human choline transporter blockers, potency – cell-based, 5-point CRC, membrane potential dye, dose response (AID 504840); format: functional
T5 sequence (Q9GZV3 whole entry): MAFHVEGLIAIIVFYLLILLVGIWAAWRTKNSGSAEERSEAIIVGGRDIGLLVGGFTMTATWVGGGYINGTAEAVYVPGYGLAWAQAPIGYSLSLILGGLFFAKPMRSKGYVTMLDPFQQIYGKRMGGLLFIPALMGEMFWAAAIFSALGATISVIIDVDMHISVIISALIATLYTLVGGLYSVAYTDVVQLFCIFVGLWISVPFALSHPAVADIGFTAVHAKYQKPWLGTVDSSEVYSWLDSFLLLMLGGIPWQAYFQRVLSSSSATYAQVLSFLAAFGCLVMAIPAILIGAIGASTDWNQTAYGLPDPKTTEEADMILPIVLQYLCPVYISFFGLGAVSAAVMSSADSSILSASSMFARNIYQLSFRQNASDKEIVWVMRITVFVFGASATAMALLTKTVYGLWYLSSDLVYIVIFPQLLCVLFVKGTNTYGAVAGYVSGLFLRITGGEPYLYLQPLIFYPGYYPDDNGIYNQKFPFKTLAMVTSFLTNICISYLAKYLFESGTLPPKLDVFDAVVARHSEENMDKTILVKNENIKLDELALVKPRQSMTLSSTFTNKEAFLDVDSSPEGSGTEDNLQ

[7] = Trypanosoma cruzi growth suppression in host cells – NIH3T3 host cells, beta-gal luminescence, confirmation (AID 2044); format: functional, cell-based;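 also: intracellular parasites grown in NIH/3T3 mouse fibroblasts as host cells; luminescent beta-galactosidase reporter signal from transgenic T. cruzi replicating inside host cells; inhibitors lower the luminescence signal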
[8] = NIH3T3 cell viability loss – ATP luminescence, mouse fibroblasts, counter-screen, dose response (AID 2010); format: functional, cell-based;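 also: cells exposed to compound for about 90 hours before reading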
[9] = target: T6, Dual specificity protein phosphatase 3 (Homo sapiens, UniProt P51452); assay: VHR1 phosphatase inhibitors, primary screen, biochemical, absorbance, uHTS (AID 1654)
T6 sequence (P51452 whole entry): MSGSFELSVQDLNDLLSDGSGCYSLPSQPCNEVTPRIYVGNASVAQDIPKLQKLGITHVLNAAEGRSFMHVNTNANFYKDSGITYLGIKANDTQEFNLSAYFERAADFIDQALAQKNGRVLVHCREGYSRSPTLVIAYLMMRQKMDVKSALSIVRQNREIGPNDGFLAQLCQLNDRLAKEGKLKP

[10] = target: T6, Dual specificity protein phosphatase 3; assay: VHR1 phosphatase inhibitors, biochemical (AID 1878)
[11] = target: T7, Dual specificity protein phosphatase 6 (Rattus norvegicus, UniProt Q64346); assay: inhibition of rat DUSP6 enzyme activity – biochemical, in vitro, primary screen (AID 425)
T7 sequence (Q64346 whole entry): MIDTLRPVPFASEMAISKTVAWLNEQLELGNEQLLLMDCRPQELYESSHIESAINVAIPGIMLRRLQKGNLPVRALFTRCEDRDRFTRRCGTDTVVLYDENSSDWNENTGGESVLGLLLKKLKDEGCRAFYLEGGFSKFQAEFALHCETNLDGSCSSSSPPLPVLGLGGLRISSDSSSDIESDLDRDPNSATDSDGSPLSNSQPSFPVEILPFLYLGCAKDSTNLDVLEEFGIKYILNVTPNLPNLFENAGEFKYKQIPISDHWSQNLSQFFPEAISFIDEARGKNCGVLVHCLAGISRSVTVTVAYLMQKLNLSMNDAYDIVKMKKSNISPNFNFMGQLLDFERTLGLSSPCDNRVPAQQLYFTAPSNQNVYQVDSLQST

[12] = target: Induced myeloid leukemia cell differentiation protein Mcl-1 (Homo sapiens, UniProt Q07820); format: functional
Chain of Induced myeloid leukemia cell differentiation protein Mcl-1 (Q07820 whole entry): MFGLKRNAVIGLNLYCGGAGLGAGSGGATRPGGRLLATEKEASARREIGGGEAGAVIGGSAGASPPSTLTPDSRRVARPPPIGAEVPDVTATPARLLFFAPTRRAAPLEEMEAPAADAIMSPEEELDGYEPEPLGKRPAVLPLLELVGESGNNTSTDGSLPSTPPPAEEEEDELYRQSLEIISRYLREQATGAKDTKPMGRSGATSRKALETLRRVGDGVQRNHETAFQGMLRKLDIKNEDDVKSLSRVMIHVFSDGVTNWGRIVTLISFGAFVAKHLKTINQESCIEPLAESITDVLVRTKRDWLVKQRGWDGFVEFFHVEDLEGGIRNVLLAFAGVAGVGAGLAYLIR

[13] = viability loss in THP-1 monocytes – THP-1 cells, cytotoxicity control for Vif-APOBEC3G degradation inhibitor project, dose response (AID 1117359); format: functional; settings: THP-1

Chain of Ephrin type-A receptor 4 (Q03137 whole entry): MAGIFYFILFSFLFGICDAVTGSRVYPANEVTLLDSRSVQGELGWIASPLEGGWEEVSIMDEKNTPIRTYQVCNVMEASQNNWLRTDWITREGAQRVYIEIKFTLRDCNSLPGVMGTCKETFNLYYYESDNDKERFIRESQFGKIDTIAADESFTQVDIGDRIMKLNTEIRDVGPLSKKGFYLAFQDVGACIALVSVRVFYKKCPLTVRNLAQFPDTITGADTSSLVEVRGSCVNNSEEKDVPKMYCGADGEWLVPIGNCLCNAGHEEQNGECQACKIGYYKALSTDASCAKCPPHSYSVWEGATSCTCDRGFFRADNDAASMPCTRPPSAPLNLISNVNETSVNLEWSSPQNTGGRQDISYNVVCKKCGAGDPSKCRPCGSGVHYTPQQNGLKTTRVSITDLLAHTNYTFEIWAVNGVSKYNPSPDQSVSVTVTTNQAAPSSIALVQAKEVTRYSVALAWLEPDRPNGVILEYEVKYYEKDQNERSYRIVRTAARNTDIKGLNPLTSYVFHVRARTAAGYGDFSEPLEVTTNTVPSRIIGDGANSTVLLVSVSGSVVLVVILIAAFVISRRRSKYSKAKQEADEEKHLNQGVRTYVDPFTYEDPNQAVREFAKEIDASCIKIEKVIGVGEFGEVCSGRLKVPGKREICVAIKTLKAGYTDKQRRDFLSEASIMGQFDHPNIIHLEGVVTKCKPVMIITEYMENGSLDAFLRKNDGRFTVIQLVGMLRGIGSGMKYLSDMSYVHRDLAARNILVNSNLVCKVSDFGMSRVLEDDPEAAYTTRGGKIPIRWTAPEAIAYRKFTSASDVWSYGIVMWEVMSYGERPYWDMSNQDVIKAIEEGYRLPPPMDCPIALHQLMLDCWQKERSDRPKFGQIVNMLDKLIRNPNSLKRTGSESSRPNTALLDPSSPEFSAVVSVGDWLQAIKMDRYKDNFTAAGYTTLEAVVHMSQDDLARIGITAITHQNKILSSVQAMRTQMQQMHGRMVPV

SMILES: CCOC(=O)c1c(NC(C)=O)sc2c1CCC(C=O)=C2Sc1ccccc1
- IC50 (Ephrin type-A receptor 4): 2.26 µM (active)
- AC50 [1]: 3.85 µM (active)
- IC50 [2]: 28.1 µM (inactive)

SMILES: O=C(NC(=S)Nc1cccc(Cl)c1N1CCCCC1)c1ccco1
- EC50 [3]: 0.46 µM (active)
- AC50 [1]: 4.12 µM (active)
- AC50 (Cytochrome P450 3A4): 15.8 µM (inconclusive)

SMILES: CC1(C)CCCC2=C1CC1C(=O)N(O)C(=O)C1C2 (stereo unspecified)
- IC50 (Estrogen receptor beta): > 50 µM (not active)

SMILES: CCN(CC)CCCN(Cc1cc2cc3c(cc2nc1O)OCCO3)C(=O)Nc1ccccc1
- IC50 (Ephrin type-A receptor 4): 13.3 µM (active)
- AC50 [4]: > 20 µM (inactive)

SMILES: CC1Cc2ccccc2N1C(=O)CSc1nnc(-c2ccc(S(=O)(=O)N3CCCC3)cc2)n1C (stereo unspecified)
- IC50 [5]: > 50 µM (not active)

SMILES: Cc1sc2ncnc(NCc3ccco3)c2c1C
- IC50 (Estrogen receptor): 35.3 µM (not active)
- IC50 (Estrogen receptor beta): 29.4 µM (active)
- IC50 [6]: 13.2 µM (active)

SMILES: C=C1N(C)c2cc([N+](=O)[O-])c(N)cc2C1(C)C
- EC50 [7]: 5.96 µM (active)
- EC50 [8]: > 60 µM (not active)
- IC50 [5]: 11.5 µM (active)

SMILES: COC(=O)c1ccc(O)c2nc3c(C=O)c(O)cc(O)c3nc12 [LOMOFUNGIN]
- IC50 [9]: 2.06 µM (active)
- IC50 [10]: < 1.23 µM (inactive)
- IC50 [11]: 48.2 µM (active)
- IC50 [12]: 3.76 µM (active)
- CC50 [13]: 8.31 µM (active)

From ChEMBL document CHEMBL1201862, “PubChem BioAssay data set” (2004)
